Numbered stars: 1 amine (or outer) side, 2 acyl side, 3 side chain; on linkers, the order of the positions; unused ones are H or OH. Bridge positions count the residues as written; N and C are the ends. Square brackets hold non-standard residues; d marks the D form. Peptide text beside a SMILES is read from it. Abu(3S-NH2) = C[C@H](N)[C@H](N)C(=O)O; Hpla = O=C(O)[C@@H](O)Cc1ccc(O)cc1; X1 = NCC[C@H](O[*:1])C(=O)[*:2]; Lac = C[C@H](O)C(=O)O
Key:
[1] = Plasma stability, human plasma; type: in vitro ADME; settings: 37° C., sampled up to 240 min; for half-life at 10 μM: read-out: Plasmastability human pl. T1/2
Protocol: (§1) The stability of the depsipeptides in human and mouse plasma was determined by applying the following method: 315 μL/deep well of freshly thawed human plasma (Basler Blutspende-dienst) and mouse plasma (Harlan Sera-Lab, UK), respectively, were spiked with 35 μL/well of compound in PBS (100 μM, triplicate) and incubated at 37° C. At t=0, 15, 30, 60, 120 and 240 min aliquots of 50 μL were transferred to filtration plate wells containing 150 μL/well of acetonitrile. Following shaking for 2 min the occurred suspensions were filtrated by vacuum and finally, 100 μL of each filtrate were transferred to a propylene microtiter plate, and analyzed by LC/MS as follows: Column: Waters, XBridge C18, mobile phases: (A) water+0.1% formic acid and (B) acetonitrile/water, 95/5 (v/v)+0.1% formic acid, gradient: 5%-100% (B) in 2 minutes, electrospray ionization, MRM detection (triple quadrupole). The peak areas were determined and triplicate values are averaged. The stability is expressed in percent of the initial value at t=0. (tx/t0×100). By using the TREND function of EXCEL (Microsoft Office 2003) T1/2 were determined.

in vitro = type: cell-based
Protocol: The cytotoxicity of the depsipeptides to HELA cells (Acc57) and COS-7 cells (CRL-1651) was determined using the MTT reduction assay (T. Mossman, J. Immunol. Meth. 1983, 65, 55-63; M. V. Berridge, A. S. Tan, Arch. Biochem. Biophys. 1993, 303, 474-482). Briefly, the method was as follows: 7000 HELA cells/well and 4500 COS-7 cells/well were seeded and grown in 96-well microtiter plates for 24 h at 37° C. at 5% CO2. Thereafter, time zero (Tz) was determined by MTT reduction (see below). The supernatant of the remaining wells was discarded, and fresh medium and compounds in serial dilutions (12.5, 25 and 50 μM, triplicates) were pipetted into the wells. After incubation of the cells for 48 h at 37° C. at 5% CO2 the supernatant was discarded again and 100 μL MTT reagent (0.5 mg/mL in RPMI1640 and DMEM, respectively)/well was added. Following incubation at 37° C. for 2 h the media were aspirated and the cells were spiked (100 μL isopropanol/well). The absorbance of the solubilized formazan was measured at 595 nm (OD595peptide). For each concentration averages were calculated from triplicates. The percentage of growth was calculated as follows: (OD595peptide-OD595Tz-OD595Empty well)/(OD595Tz-OD595Empty well)×100%. The GI50 (Growth Inhibition) concentrations were calculated for each depsipeptide by using a trend line function for the concentrations (50, 25, 12.5 and 0 μM), the corresponding percentages and the value 50, (=TREND (C50:C0, %50:%0, 50).

[2] = test system: human red blood cells (hRBC); type: cell-based; settings: red cells of human, 1 h
Protocol: 2.5. Hemolysis The depsipeptides were tested for their hemolytic activity against human red blood cells (hRBC). Fresh hRBC were washed three times with phosphate buffered saline (PBS) and centrifuged for 10 min at 2000×g. Compounds (100 μM) were incubated with 20% hRBC (v/v) for 1 h at 37° C. The final erythrocyte concentration was approximately 0.9×10^9 cells/mL. A value of 0% and 100% cell lyses, respectively, was determined by incubation of hRBC in the presence of PBS alone and 0.1% Triton X-100 in H2O, respectively. The samples were centrifuged, the supernatants were 20-fold diluted in PBS buffer and the optical densities (OD) were measured at 540 nm. The 100% lyses value (OD540H2O) gave an OD540 of approximately 1.3-1.8. Percent hemolysis was calculated as follows: (OD540peptide/OD540H2O)×100%.

human CXCR4 = biological target: T1, human CXCR4 (Homo sapiens, UniProt P61073); experiment: Ca2+-assay: CXCR4-antagonizing activity (SDF-1 induced calcium mobilization); type: cell-based; settings: mouse pre-B cell line 300-19 stably transfected with human CXCR4, read-out: IC50% [nM] ± SD, CXCR4 receptor
T1 construct: expressed in transfected cells; host or cells: mouse pre-B cell line 300-19
T1 sequence (P61073 whole entry): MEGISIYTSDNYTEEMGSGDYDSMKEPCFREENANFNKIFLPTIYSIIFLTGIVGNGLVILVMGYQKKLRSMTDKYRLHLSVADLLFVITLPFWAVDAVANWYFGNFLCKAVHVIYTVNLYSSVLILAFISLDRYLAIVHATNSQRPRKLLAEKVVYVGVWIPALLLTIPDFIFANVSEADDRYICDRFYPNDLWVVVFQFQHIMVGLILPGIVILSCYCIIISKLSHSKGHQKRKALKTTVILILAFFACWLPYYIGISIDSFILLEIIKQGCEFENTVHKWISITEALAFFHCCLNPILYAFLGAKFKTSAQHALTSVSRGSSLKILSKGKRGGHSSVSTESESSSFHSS
From the text: 2.3. Ca^2+-Assay: CXCR4-Antagonizing Activity of the Depsipeptides
Increases in intracellular calcium were monitored using a Flexstation 384 (Molecular Devices, Sunnyvale, Calif.) to assay the depsipeptides for CXCR4 antagonism in a mouse pre-B cell line 300-19 stably transfected with human CXCR4 (E. Oberlin, A. Amara, F. Bachelerie, C. Bessia, J.-L. Virelizier, F. Arenzana-Seisdedos, O. Schwartz, J.-M. Heard, I. Clark-Lewis, D. F. Legler, M. Loetscher, M. Baggiolini, B. Moser, Nature 1996, 382, 833-835; M. Loetscher, T. Geiser, T. O'Reilly, R. Zwalen, M. Baggiolini, B. Moser, J. Biol. Chem. 1994, 269, 232-237; M. D'Apuuo, A. Rolink, M. Loetscher, J. A. Hoxie, I. Clark-Lewis, F. Melchors, M. Baggiolini, B. Moser, Eur. J. Immunol. 1997, 27, 1788-1793). The cells were batch loaded with the Calcium 4 Assay kit (Molecular Devices) in assay buffer (Hanks Balanced salt solution [HBSS], 20 mM HEPES, pH 7.4, 0.1% BSA) for 1 h at room temperature and labeled cells were dispensed into black well assays plates (Costar No. 3603). Calcium mobilization induced by stromal-derived factor-1 (SDF-1) was measured in the Flexstation 384 (excitation: 485 nm; emission: 525 nm) for 90 seconds. Antagonist activity of depsipeptides was determined by spiking the cells with compounds prior to SDF-1 addition. Dose response curves (compound concentration versus % maximum response for SDF-1) were determined for each antagonist and IC50 values were calculated by fitting the data to a four parameter logistic equation using SoftmaxPro 4.8 (Molecular Devices).

[3] = Plasma stability, mouse plasma; type: in vitro ADME; settings: 37° C., sampled up to 240 min; for half-life at 10 μM: read-out: Plasmastability mouse pl. T1/2
Protocol: as §1

Row | SMILES | half-life at 10 μM [1] [h] | GI50 at 48 h (in vitro; African green monkey) [µM] | GI50 at 48 h (in vitro; human) [µM] | IC50 (human CXCR4) [nM] | half-life at 10 μM [3] [h] | Plasmastability human pl. T1/2 [1] [h] | Plasmastability mouse pl. T1/2 [3] [h] | Hemolysis at 100 μM [2] [%]
1 | C[C@@H]1NC(=O)[C@H](CCCNC(=N)N)NC(=O)[C@@H]2CSSC[C@H](NC(=O)[C@H](Cc3ccc(O)cc3)NC(=O)[C@H](CCCNC(=N)N)NC(=O)[C@H]([C@H](C)N)NC(=O)[C@H]3CCCN3C1=O)C(=O)N[C@@H](Cc1ccc(O)cc1)C(=O)N[C@@H](CCC(N)=O)C(=O)N[C@@H](CCCCN)C(=O)N1CCC[C@@H]1C(=O)N1CCC[C@H]1C(=O)N[C@@H](Cc1ccc(O)cc1)C(=O)N[C@@H](Cc1c[nH]cn1)C(=O)O[C@@H](C)C(=O)N2 [Example 9] (cyclo(YH[Lac]CRA[dP][Abu(3S-NH2)]RYCYQK[dP]P); disulfide 4-11) | 1.42 | > 50 | > 50 | 20.8 ± 8.3 | 1.23 |  |  | 0.4
2 | C[C@@H]1NC(=O)[C@H](Cc2c[nH]cn2)NC(=O)[C@H](Cc2ccc(O)cc2)NC(=O)[C@@H]2CCCN2C(=O)[C@H]2CCCN2C(=O)[C@H](CCN)OC(=O)[C@H](CCC(N)=O)NC(=O)[C@H](Cc2ccc(O)cc2)NC(=O)[C@@H]2CSSC[C@H](NC1=O)C(=O)N[C@@H](CCCNC(=N)N)C(=O)N[C@@H](C)C(=O)N1CCC[C@@H]1C(=O)N[C@@H]([C@H](C)N)C(=O)N[C@@H](CCCNC(=N)N)C(=O)N[C@@H](Cc1ccc(O)cc1)C(=O)N2 [Example 8] (cyclo(YHACRA[dP][Abu(3S-NH2)]RYCYQ[X1][dP]P); disulfide 4-11) |  | > 50 | > 50 | 82.4 ± 12.8 |  |  |  | 0.4
3 | C[C@@H]1NC(=O)[C@H](Cc2c[nH]cn2)NC(=O)[C@H](Cc2ccc(O)cc2)NC(=O)[C@@H]2CCCN2C(=O)[C@H]2CCCN2C(=O)[C@H](CCN)OC(=O)[C@@H](CCC(N)=O)NC(=O)[C@H](Cc2ccc(O)cc2)NC(=O)[C@@H]2CSSC[C@H](NC1=O)C(=O)N[C@@H](CCCNC(=N)N)C(=O)N[C@@H](C)C(=O)N1CCC[C@@H]1C(=O)N[C@@H]([C@H](C)N)C(=O)N[C@@H](CCCNC(=N)N)C(=O)N[C@@H](Cc1ccc(O)cc1)C(=O)N2 [Example 10] (cyclo(YHACRA[dP][Abu(3S-NH2)]RYCY[dQ][X1][dP]P); disulfide 4-11) | 0.085 | > 50 | > 50 | 16.6 ± 1.5 | 0.0883 |  |  | 0.3
4 | C[C@@H]1NC(=O)[C@H](Cc2c[nH]cn2)NC(=O)[C@H](Cc2ccc(O)cc2)NC(=O)[C@@H]2CCCN2C(=O)[C@H]2CCCN2C(=O)[C@H](CCCCN)NC(=O)[C@H](Cc2ccc(O)cc2)OC(=O)[C@H](Cc2ccc(O)cc2)NC(=O)[C@@H]2CSSC[C@H](NC1=O)C(=O)N[C@@H](CO)C(=O)N[C@@H](C)C(=O)N1CCC[C@@H]1C(=O)N[C@@H]([C@H](C)N)C(=O)N[C@@H](CCCNC(=N)N)C(=O)N[C@@H](Cc1ccc(O)cc1)C(=O)N2 [Example 4] (cyclo(YHACSA[dP][Abu(3S-NH2)]RYCY[Hpla]K[dP]P); disulfide 4-11) |  | > 50 | > 50 | 4.4 ± 1.6 |  | > 4 | > 4 | 1.0
5 | C[C@@H]1NC(=O)[C@H](Cc2c[nH]cn2)NC(=O)[C@H](Cc2ccc(O)cc2)NC(=O)[C@@H]2CCCN2C(=O)[C@H]2CCCN2C(=O)[C@H](CCCCN)NC(=O)[C@H](CCC(N)=O)NC(=O)[C@H](Cc2ccc(O)cc2)NC(=O)[C@@H]2CSSC[C@H](NC1=O)C(=O)N[C@@H](CO)C(=O)N[C@@H](C)C(=O)N1CCC[C@@H]1C(=O)O[C@@H](CCN)C(=O)N[C@@H](CCCNC(=N)N)C(=O)N[C@@H](Cc1ccc(O)cc1)C(=O)N2 [Example 2] |  | > 50 | > 50 | 0.7 ± 0.7 |  | > 4 | > 4 | 0.7

Now from value to molecule, other results behind:

Row | half-life at 10 μM [1] [h] | GI50 at 48 h (in vitro; African green monkey) [µM] | GI50 at 48 h (in vitro; human) [µM] | IC50 (human CXCR4) [nM] | half-life at 10 μM [3] [h] | Plasmastability human pl. T1/2 [1] [h] | Plasmastability mouse pl. T1/2 [3] [h] | SMILES | Hemolysis at 100 μM [2] [%]
6 |  | > 50 | > 50 | 3.3 ± 1.1 |  | > 4 | > 4 | C[C@@H]1NC(=O)[C@H](Cc2c[nH]cn2)NC(=O)[C@H](Cc2ccc(O)cc2)OC(=O)[C@@H]2CCCN2C(=O)[C@H]2CCCN2C(=O)[C@H](CCCCN)NC(=O)[C@H](CCC(N)=O)NC(=O)[C@H](Cc2ccc(O)cc2)NC(=O)[C@@H]2CSSC[C@H](NC1=O)C(=O)N[C@@H](CO)C(=O)N[C@@H](C)C(=O)N1CCC[C@@H]1C(=O)N[C@@H]([C@H](C)N)C(=O)N[C@@H](CCCNC(=N)N)C(=O)N[C@@H](Cc1ccc(O)cc1)C(=O)N2 [Example 5] (cyclo([Hpla]HACSA[dP][Abu(3S-NH2)]RYCYQK[dP]P); disulfide 4-11) | 1.5
7 | 1.03 | > 50 | > 50 | 2.1 ± 0.5 | 0.85 |  |  | C[C@@H]1NC(=O)[C@H](Cc2c[nH]cn2)NC(=O)[C@H](Cc2ccc(O)cc2)NC(=O)[C@@H]2CCCN2C(=O)[C@H]2CCCN2C(=O)[C@H](CCCCN)NC(=O)[C@H](CCC(N)=O)NC(=O)[C@H](Cc2ccc(O)cc2)NC(=O)[C@@H]2CSSC[C@H](NC1=O)C(=O)N[C@H](CO)C(=O)O[C@@H](C)C(=O)N1CCC[C@@H]1C(=O)N[C@@H]([C@H](C)N)C(=O)N[C@@H](CCCNC(=N)N)C(=O)N[C@@H](Cc1ccc(O)cc1)C(=O)N2 [Example 7] (cyclo(YHAC[dS][Lac][dP][Abu(3S-NH2)]RYCYQK[dP]P); disulfide 4-11) | 0.2
8 | 1.32 | 12 | 2 | 0.8 ± 0.5 | 1.22 |  |  | C[C@@H]1NC(=O)[C@H](Cc2c[nH]cn2)NC(=O)[C@H](Cc2ccc(O)cc2)NC(=O)[C@@H]2CCCN2C(=O)[C@H]2CCCN2C(=O)[C@H](CCCCN)NC(=O)[C@H](CCC(N)=O)NC(=O)[C@H](Cc2ccc(O)cc2)NC(=O)[C@@H]2CSSC[C@H](NC1=O)C(=O)N[C@@H](CO)C(=O)O[C@@H](C)C(=O)N1CCC[C@@H]1C(=O)N[C@@H]([C@H](C)N)C(=O)N[C@@H](CCCNC(=N)N)C(=O)N[C@@H](Cc1ccc(O)cc1)C(=O)N2 [Example 1] (cyclo(YHACS[Lac][dP][Abu(3S-NH2)]RYCYQK[dP]P); disulfide 4-11) | 0.2

Source: patent US8883720B2, “Template-fixed beta-hairpin peptidomimetics with CXCR4 antagonizing activity” (Polyphor AG, priority 2008, dated 2014)
